As a reminder, the inhibition is the drop in the measured response relative to a control, in per cent. The IC50 is the concentration that inhibits the measured activity by half. The low end stands for greater potency in that assay, the high end for weaker potency in that assay. As a reminder, the pKa is the pH at which an ionisable group is half protonated. In general, solubility refers to the dissolved amount per volume that the medium holds. Read a high solubility as a readily soluble substance.

Here are results for 1 molecule from patent US9670172B2, “Heterocyclic compounds and methods of use” (Medivation Technologies, Inc., priority 2014, dated 2017).

Data set [1] relates to SREBP2. The data set is described as follows: SREBP2 cleavage in HEPG2 cells (Western blot normalized to actin). Type of data set: cell-based. The following applies: Homo sapiens, HepG2 cells, read-out: Average SREBP2 cleavage (% Inhibition, n = 3). Here is the method:
Average SREBP2 cleavage in HEPG2 cells was measured in the presence of compounds disclosed in Table 1. HepG2 cells were seeded at 500,000 cells per well in 6-well plates in DMEM supplemented with 10% FBS. After 2 days, cells were treated with compounds (20 μM) for 1 day in DMEM without FBS. Western blots were normalized with respect to actin.
The results are shown in Table 3 as percent inhibition@20 μM, and in Table 4 as percent inhibition@5 μM.
(In general: A western blot detects proteins with antibodies after separation by electrophoresis.)

A short description of data set [2]: HepG2 cell viability by MTS. Type of data set: cell-based. Particulars: human, HepG2 cells, 3 days, DMEM without FBS, MTS, read-out: Average Viability (% Inhibition, n = 3). How it is done:
(§1) For viability measurements, HepG2 cells were seeded at 5,000 cells per well in 96-well plates in DMEM supplemented with 10% FBS. After 1 day in culture, cells were treated with compounds (20 μM & 5 μM) for 3 days in DMEM without FBS. Viability was measured by MTS. Treatment with compounds (20 μM & 5 μM) was carried out in medium without FBS, and viability was measured by MTS. […]

Another data set relates to HepG2 cells. The experiment in a line: HepG2 cell viability by MTS. Type of data set: cell-based. Particulars: Homo sapiens, several concentrations, FIG. 1. Here is the method:
as §1

Data set [3] in a line: pKa by potentiometric and spectrophotometric methods (Pion, Inc.). Type of data set: physicochemical. Particulars: two values, read-out: pKa experimentally obtained. From the text:
As has been described above, the inherent pKa(s) of molecules can be assessed by potentiometric methods known to the skilled artisan, typically UV spectrophotometry [see, for example, Julémont, et al. J. Med. Chem. (2002), 45, pp 5182-5185]. In-silico methods can be used as a predictive tool, and software is commercially available from, for example, ACD/Labs, Molecular Discovery, ChemAxon, and other vendors. […] The compounds provided herein contain several ionizable centers including, for example, the trifluoromethylsulfonamide nitrogen atom; the thiazole ring nitrogen atom; the “ring A” pyridine nitrogen atom, etc.
Other ionized forms are conceivable, but those presented here are a protonated form; a neutral or internal zwitterionic form; and an anionic form. Which form would exist is dependent upon the pH of the aqueous or physiological solution in which the compound is placed. […] These values are similar to those experimentally obtained under potentiometric and spectrophotometric methods [courtesy of Pion, Inc.], found to be 3.09 and 5.27. […] Based on the calculated/measured pKa values of the trifluoromethylsulfonamide containing compounds claimed herein, it is likely that at a pH of 6-8, these compounds will predominantly exist in the anionic form, with the above equilibrium lying to the right at higher pH values. […]

Data set [4] can be described thus: Solubility study at different pH (Pion, Inc.). Type of data set: physicochemical. Particulars: aqueous buffer. The source says:
Other ionized forms are conceivable, but those presented here are a protonated form; a neutral or internal zwitterionic form; and an anionic form. Which form would exist is dependent upon the pH of the aqueous or physiological solution in which the compound is placed. […] These values are similar to those experimentally obtained under potentiometric and spectrophotometric methods [courtesy of Pion, Inc.], found to be 3.09 and 5.27. […] It is postulated that the more electronegative nature of the CF3 group results in a more highly acidic nature of the compound. Based on the calculated/measured pKa values of the trifluoromethylsulfonamide containing compounds claimed herein, it is likely that at a pH of 6-8, these compounds will predominantly exist in the anionic form, with the above equilibrium lying to the right at higher pH values. The anionic form renders the compound more aqueous soluble and therefore better absorbed. […] When a compound is dosed orally, most of the absorption occurs in the intestines where the pH ranges from 6-8.

The subject of data set [5] is SREBP2. The data set is described as follows: SREBP2 cleavage in HEPG2 cells (Western blot normalized to actin). Type of data set: cell-based. The following applies: Homo sapiens, several concentrations, FIG. 1.

Values after ≈ are worked out from the molar mass of the structure shown.

Take `CC(C)Cc1cc(-c2nc(-c3ccc(NS(=O)(=O)C(F)(F)F)cc3Cl)cs2)ccn1` [Compound 37, N-(3-chloro-4-(2-(2-isobutylpyridin-4-yl)thiazol-4-yl)phenyl)-1,1,1-trifluoromethanesulfonamide]: the inhibition at 20 µM with SREBP2 [1] (24 h, 20 μM, 1 day, DMEM without FBS) was 94.6%. Besides, in the data set on SREBP2 [1] (5 μM), the inhibition at 5 µM amounted to 75%. In addition, the cytotoxicity at 3 days, 5 μM in data set [2] (5 μM) was found to be 94%. Besides, the cytotoxicity at 3 days, 20 μM in data set [2] (20 μM) is 95%. In addition, the IC50 was determined as 2.15 µM with HepG2 cells and 4.6 µM in the data set with SREBP2 [5]. Moreover, the pKa in data set [3] worked out at 3.09. Besides, the solubility is 13 µg/mL (≈ 27.3 µM) in data set [4] (pH 6.0), 104 µg/mL (≈ 219 µM) in data set [4] (pH 7.0) and more than 130 µg/mL in data set [4] (pH 8.0).
